Results published in patent US8158441B2, “Method for detecting aggregate-forming circulating protein forms using an agent for aggregating said forms and an agent for capturing formed aggregates” (Biomerieux S.A., priority 2005, dated 2012).

Assays:
recombinant Tau protein = assay: Capture/precipitation of recombinant Tau protein by agent II C6S, Western blotting of pellet and supernatant; settings: C6S 0.5 mM to 60 mM, 30 minutes at 37° C., centrifugation
Method: It is identical to that described in point 2.1 above.
The assays are carried out as indicated in point 2.2 above, apart from the fact that C6S prepared as indicated patent application WO2004/059322 is used, with a concentration range of from 0.5 mM to 60 mM.

[1] = molecular target: T1, recombinant alpha-synuclein (SYN) protein (Homo sapiens, UniProt P37840); assay: Precipitation of recombinant alpha-synuclein spiked into human plasma by agent I, protein gel and Western blotting; settings: 50 to 500 mg/ml agent I, 60 minutes at 37° C., Western blotting
T1 construct: purchased rPeptide
Method: After migration, two options are used: • The protein gel is stained with Coomassie Blue by adding gelcode blue stain reagent (Pierce) overnight at ambient temperature with shaking. […] 9.2 Detection in the Presence of the Agent I
The pellets are recovered and are separated from the supernatants. All the fractions are conserved. The pellets are taken up with 250 μl of SDS buffer. After denaturation, all the fractions are analyzed by the Western blotting technique.

[2] = molecular target: T2, phosphorylated Tau protein (Homo sapiens, UniProt P10636); assay: Precipitation of phosphorylated Tau protein from brain extracts spiked into plasma by agent I, PhosphoTau ELISA of pellet and supernatant; settings: TET 100 mg/ml, 60 minutes at 37° C.
T2 construct: The assays are carried out with 25 ng of brain extracts; from tissue; host or cells: brain extracts from Alzheimer (AD+) and non-Alzheimer (AD-) patients, diluted in a pool of normal plasmas
T2 sequence (P10636 1-441 isoform P10636-8): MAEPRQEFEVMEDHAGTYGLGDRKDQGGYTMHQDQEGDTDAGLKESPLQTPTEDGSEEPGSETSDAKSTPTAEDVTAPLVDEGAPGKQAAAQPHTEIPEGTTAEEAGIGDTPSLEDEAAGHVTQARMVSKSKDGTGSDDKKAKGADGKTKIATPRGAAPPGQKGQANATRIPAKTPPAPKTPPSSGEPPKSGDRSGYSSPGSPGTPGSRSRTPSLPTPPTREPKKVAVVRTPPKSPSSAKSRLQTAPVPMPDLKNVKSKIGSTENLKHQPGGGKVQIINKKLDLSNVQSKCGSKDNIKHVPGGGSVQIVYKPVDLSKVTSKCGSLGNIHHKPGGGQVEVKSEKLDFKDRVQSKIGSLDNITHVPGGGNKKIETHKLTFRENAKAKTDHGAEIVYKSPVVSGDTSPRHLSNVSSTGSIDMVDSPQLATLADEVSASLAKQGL
Method: The PhosphoTau Elisa assay is based on the use of Dynex microplates to which are bound 3 μg/ml of goat anti-mouse Fc antibodies (Pierce) in a 25 mM KHPO4 buffer (pH 7.2) containing 140 mM NaCl, 1 mM EDTA and 2 mM NaN3, for three hours at 24° C. The wells are then passivated with a TBS (25 mM Tris-HCl, pH 7.5, 140 mM NaCl)-casein (1%) buffer for 1 h at 24° C., and then incubated for 2 h at 24° C. with 3 μg/ml of Tau1 (Chemicon) and CP27 (AppliedNeuroSolutions) antibodies diluted in TBS casein buffer.
Standards and brain extracts are diluted in a pool of normal plasmas for these assays and deposited at a rate of 80 μL per well in duplicate. […] 20 μl of this mixture are added to each well and incubated for 66 hours at 24° C. […] The biotinylated antibody is detected with 0.4 μg/ml of a streptavidin-peroxydase conjugate (Pierce) diluted in TBS-casein buffer and incubated for 45 minutes at 24° C. A Lumiglo reagent (Kirkegaard and Perry laboratories, US) is added to each well and the chemiluminescence is read in a luminometer (Berthold, Centro LB 960). […]
The samples are then centrifuged for 10 minutes at 13 000 rpm. […] The samples are then ready to be deposited on plates.
The samples are then centrifuged for 10 minutes at 13 000 rpm. […] The samples are then ready to be deposited onto plates.

[3] = molecular target: T3, beta-amyloid peptide 1-42 (Homo sapiens, UniProt P05067); assay: Circular dichroism of Aβ42 peptide with chondroitin-6-sulfate; assay type: binding
T3 construct: synthetic beta-amyloid peptide 42 amino acids in length (beta-A peptide 1-42)
T3 sequence (P05067 672-713): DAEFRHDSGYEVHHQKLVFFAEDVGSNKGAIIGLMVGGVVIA
Method: The beta-amyloid peptide to be analyzed as defined above, also called Aβ42, is extemporaneously dissolved at a stock concentration of 2.2×10^-4M in a solution of trifluoroethanol (TFE) at 20% in water in order to structure the β-amyloid peptides. The para-sulfonato-[…], prepared as described in Da Silva, E. et al., 2003, Tetrahedron, 59(37): 7357-7364, are dissolved at 100 μM in 50 mM phosphate buffer. The samples are prepared so as to be able to obtain a final concentration of 10 μM of beta-amyloid peptide in a phosphate buffer, i.e. for a final volume of 500 μL. The peptide concentration/calixarene concentration ratios can vary from 1/0 to 1/5. The samples are analyzed by circular dichroism between 180 and 260 nm. The protocol described in Example 5 above was repeated, with the exception that chondroitin-6-sulfate (Sigma) was used as agent II.

[4] = molecular target: T3, beta-amyloid peptide 1-42; assay: Circular dichroism of Aβ42 peptide with para-sulfonato-calix[4]arene; assay type: binding; settings: in the presence of para-sulfonato-calix[4]arene, peptide/calixarene 1/1 to 1/5
Method: The analysis is carried out by circular dichroism.
The beta-amyloid peptide to be analyzed as defined above, also called Aβ42, is extemporaneously dissolved at a stock concentration of 2.2×10^−4M in a solution of trifluoroethanol (TFE) at 20% in water in order to structure the β-amyloid peptides. The para-sulfonato-calix[n]arenes, prepared as described in Da Silva, E. et al., 2003, Tetrahedron, 59(37): 7357-7364, are dissolved at 100 μM in 50 mM phosphate buffer. The samples are prepared so as to be able to obtain a final concentration of 10 μM of beta-amyloid peptide in a phosphate buffer, i.e. for a final volume of 500 μL. The peptide concentration/calixarene concentration ratios can vary from 1/0 to 1/5.
A β-amyloid control without para-sulfonato-calix[n]arene is carried out: 22.5 μL of Aβ42 stock solution at 2.2×10^−4M (5 nmol) in 20% TFE, 477.5 μL of 50 mM phosphate buffer.
The samples are analyzed by circular dichroism between 180 and 260 nm.
The control is a sample of Aβ42 peptide without calixarene (1/0). The solutions are prepared for a final volume of 500 μL. The Aβ42 peptide has a molar mass of 4514 g/mol, the para-sulfonato-calix[4]arene has a molar mass of 744 g/mol.

[5] = chondroitin-6-sulfate at a concentration equal to that of Aβ42

p-sulfonato-3,7-(2-aminoethyloxy)calix-[6]-arene [C6S]
fraction in which the Tau protein and its digested forms are found after treatment with C6S (recombinant Tau protein): found in the pellet

NCCNCCNCCN [TET, triethylenetetramine]
completeness of precipitation of the Syn protein (protein found in the supernatant fraction) [1]: not complete
fraction in which the Syn protein is found after treatment with agent I [1]: found in the pellet
fraction in which the phosphorylated Tau protein is found after treatment with agent I [2]: found in the pellet

chondroitin-6-sulfate
aperiodic structure (at 200 nm) of Aβ42 [3, 5]: greater than 26%
α-helix (at 210 nm) of Aβ42 [3, 5]: more than 37%
β-sheet of Aβ42 at 220 nm [3, 5]: appears
secondary conformation adopted by Aβ42 ([3]; chondroitin-6-sulfate five times greater than the Aβ42 peptide): essentially aperiodic structure

O=S(=O)(O)c1cc2c(O)c(c1)Cc1cc(S(=O)(=O)O)cc(c1O)Cc1cc(S(=O)(=O)O)cc(c1O)Cc1cc(S(=O)(=O)O)cc(c1O)C2 [para-sulfonato-calix[4]arene]
aperiodic structure (200 nm) of Aβ42 as share of visible structures [4]: 38%
α-helix structure (210 nm) of Aβ42 as share of visible structures [4]: more than 37%
β-sheets (220 nm) of Aβ42 as share of visible structures [4]: more than 26%

[H]/N=C(/N)N[C@H]1[C@H](O)[C@@H](O)[C@H](O[C@@H]2O[C@@H](C)[C@](O)(C=O)[C@H]2O[C@@H]2O[C@@H](CO)[C@H](O)[C@@H](O)[C@@H]2NC)[C@@H](N/C(N)=N\[H])[C@@H]1O [streptomycin]
completeness of precipitation of the Syn protein (protein found in the supernatant fraction) [1]: not complete
fraction in which the Syn protein is found after treatment with agent I [1]: found in the pellet
